Laboratory results published in publication PMC5925453 (EBioMedicine, 2018).

Key:
Type in all cases: cell-based
[1] = tested on: PC9 (exon 19 deletion) cells; assay: Cell viability assay; conditions: for IC50: Homo sapiens, PC-9, 72 h
11–18 (Leu858Arg) cells = assay: cells; conditions: 72 h
[2] = tested on: HCC4006 (exon 19 deletion) cells; assay: Cell viability assay; conditions: Homo sapiens, HCC4006, 72 h
[3] = tested on: HCC827 (exon 19 deletion) cells; assay: Cell viability assay; conditions: Homo sapiens, HCC827, 72 h
[4] = tested on: H1975 (Leu858Arg and Thr790Met) cells; assay: cells; conditions: for IC50: Homo sapiens, NCI-H1975, 72 h
[5] = tested on: EGFR downstream signal transduction pathways and RTKs; assay: Western blotting, osimertinib with TPX-0005, PC9, 11–18 and H1975 cell lines; conditions: TPX-0005 1 μM, 24 h
[6] = tested on: STAT3 and FAK phosphorylation; assay: Western blotting, dasatinib or TPX-0005, PC9 and H1975 cell lines; conditions: dasatinib 50 and 100 μM respectively, 24 h
[7] = tested on: phospho-STAT3 in PC9 cells; assay: Immunofluorescence and imaging flow cytometry of STAT3 / phospho-STAT3; conditions: 24 h
[8] = tested on: mRNA expression of RTK and non-RTK genes; assay: Quantitative RT-PCR after treatment, PC9 and H1975 cells; conditions: TPX-0005 1 μM alone or combined with an EGFR TKI, five days
[9] = osimertinib 0.05, 0.8 and 0.02 μM respectively

| Compound | IC50 [1] [nM] | IC50 (11–18 (Leu858Arg) cells) [nM] | IC50 [2] [nM] | IC50 [3] [nM] | IC50 [4] [nM] | Src and FAK phosphorylation [5, 9] | STAT3 and FAK phosphorylation [6] | interaction of TPX-0005 with gefitinib (cell viability, colony formation) ([1]; PC9 cells) | interaction of TPX-0005 with osimertinib (cell viability, colony formation) [4] | STAT3 activation state by intracellular localization (immunofluorescence) [7] | AXL total protein expression [5] | CDCP1 phosphorylation [5, 9] | mRNA expression of most of the transcripts explored [8] |
| --- | --- | --- | --- | --- | --- | --- | --- | --- | --- | --- | --- | --- | --- |
| COc1cc2ncnc(Nc3ccc(F)c(Cl)c3)c2cc1NC(=O)/C=C/CN1CCCCC1 [Dacomitinib] | < 10 | 10 | < 10 | < 10 | – | – | – | – | – | – | – | – | – |
| C=CC(=O)Nc1cc(Nc2nccc(-c3cn(C)c4ccccc34)n2)c(OC)cc1N(C)CCN(C)C [Osimertinib] | 20 | – | 10 | 10 | 20 | induced | – | – | – | – | – | – | – |
| Cc1nc(Nc2ncc(C(=O)Nc3c(C)cccc3Cl)s2)cc(N2CCN(CCO)CC2)n1 [Dasatinib] | – | – | – | – | – | – | induced | – | – | – | – | – | – |
| C[C@H]1CNC(=O)c2cnn3ccc(nc23)N[C@H](C)c2cc(F)ccc2O1 [TPX-0005] | 1000 | – | 1480 | – | 1000 | abrogated | – | synergistic | synergistic | did not occur | minor effect | diminished | abolished or attenuated |
